# Tests used:
# pancreatic cancer = conditions: 10 μmol/L alone; cells without drugs 17%; cited from earlier work
# Caspase 3/7, 8, and 9 [1] = assay: Caspase activity (chemiluminescence/MTT) in HCT116 cells; type: cell-based, human; conditions: M1 1 MOI, LCL161 5 μM, 72 hours, vs control
# Method: (§1) The cells in the exponential growth phase were selected and added into a DMEM complete culture medium (containing 10% fetal bovine serum and 1% penicillin/streptomycin (Life Technologies)) to prepare a cell suspension. The cells were inoculated into a 96-well culture plate at a density of 4×10^3/well. After 12 hours, the cells were completely adherent to the walls of the culture plate. In this experiment, cultures were divided into a control group, a single drug group (using LCL161 alone), a group infected with M1, and a group treated with combined LCL161/M1. The doses used were as follows: cells were infected with M1 at 1 MOI ([…]) or 0.1 MOI (Huh7 cells), and LCL161 was added at a concentration of 5 μM. Each of the above mentioned treatment groups was divided in four for detecting MTT and the activities of Caspase 3/7, 8 and 9. 72 hours after treatment, the reagent for detecting Caspase3/7, 8 and 9 was added into each well on the basis of the volume, and the resulting wells were placed into the incubator for a further half hour. The liquid was absorbed into the opaque 96 well plate for measuring the chemical luminous intensity by a microplate reader. Meanwhile, MTT was detected to calculate the survival rate of the cells. The activity of Caspase was standardized by the ratio of chemiluminescent value to MTT value.
# [2] = tested on: transplantable tumor of HCT116 cancer strain; assay: Transplantable tumor of HCT116 in nude mice; type: in vivo, BALB/c nude mice; conditions: HCT116 tumors
# Method: (§2) The present experiment was performed as a randomized and single-blinded trial. 5×10^6 HCT116 or 1×10^7 Huh7 cells were subcutaneously injected into dorsa of 4-week-aged BALB/c nude mice. When the size of tumors reached 50 mm^3, the mice were divided into groups, including an untreated control group (Control), a group treated with LCL161 alone (i.p. 20 mg/kg/d), a group infected with M1 alone (transplantable tumor of HCT116 cancer strain was injected with M1 virus via tail vein (2×10^6 PFU/time), and transplantable tumor of Huh7 cancer strain was injected with M1 virus via tail vein (5×10^5 PFU/time)) and a group treated with LCL161/M1 (LCL161 and M1 virus were administered in the same way at the same dose), and four injections was performed continuously (for HCT116, injection was conducted on day 5, day 6, day 7, and day 8; for Huh7, injection was conducted on day 10, day 11, day 12, and day 13). The weight, length and width of the tumor were measured every two days, and the volume of the tumor was calculated according to the formula: (length×width^2)/2. After measuring the volume of the tumor, one way ANOVA statistics was carried out, wherein *** indicates p<0.001, ** indicates p<0.01, and * indicates p<0.05.
# Caspase 3/7, 8, and 9 [3] = assay: Caspase activity (chemiluminescence/MTT) in Huh7 cells; type: cell-based, human; conditions: M1 0.1 MOI, LCL161 5 μM, 72 hours, vs control
# Method: as §1
# [4] = tested on: transplantable tumor of Huh7 cancer strain; assay: Transplantable tumor of Huh7 in nude mice; type: in vivo, BALB/c nude mice; conditions: Huh7 tumors; LCL161 i.p. 20 mg/kg/d; M1 tail vein 5×10^5 PFU/time; four injections day 10-13
# Method: as §2
# [5] = tested on: human colorectal cancer cell line HCT116; assay: MTT survival rate of HCT116 cells (LCL161/Birinapant, M1 virus); type: cell-based; conditions: MTT 72 hours, 5 μM LCL161, MOI of M1 not stated (FIG. 2(A))
# Method: a) Inoculation of cells and administration treatment: cells in the exponential growth phase were selected and added into a DMEM complete culture medium (containing 10% fetal bovine serum and 1% penicillin/streptomycin (Life Technologies)) to prepare a cell suspension. The cells were inoculated into a 96-well culture plate at a density of 4×10^3/well. After 12 hours, the cells were completely adherent to the wells. The experiment was divided into a control group and a single drug group (using 5 μM LCL161 or Birinapant alone), a group infected with M1 and a group treated with LCL161/M1 or Birinapant/M1. In M1-containing assays, virus was provided at varying MOI. The concentration of LCL161 or Birinapant was 5 μM • b) Reaction of MTT with succinate dehydrogenase in the cells: 72 hours after culture, 20 μl MTT (5 mg/ml) was added into each well, and was incubated for a further 4 hours. After incubation, granular blue and purple formazan crystals formed in the living cells were observed by microscopic examination. • c) Dissolution of formazan particles: those cultures having cells with formazan crystals were further processed as follows. […] The optical density (OD value) of each well was detected in an enzyme linked detector at a wavelength of 570 nm. […] The calculated survival rate of the cells=OD value of the drug treatment group/OD value of the control group×100%. […]
smiles,measurement,setting,value
Nc1ccn([C@@H]2O[C@H](CO)[C@@H](O)C2(F)F)c(=O)n1 [Gemcitabine],apoptosis rate,pancreatic cancer,58%
CN[C@@H](C)C(=O)N[C@H](C(=O)N1CCC[C@H]1c1nc(C(=O)c2ccc(F)cc2)cs1)C1CCCCC1 [LCL161],"activities of Caspase 3/7, 8, and 9","Caspase 3/7, 8, and 9 [1]",only slightly up-regulated
same,reduction in tumor volume as compared with the control group,"[2]; LCL161 i.p. 20 mg/kg/d, M1 tail vein 2×10^6 PFU/time, four injections day 5-8",29.15%
same,tumor volume (in words),"[2]; same dosing, vs control group",only a slight reduction in tumor volume
same,"activities of Caspase 3/7, 8, and 9","Caspase 3/7, 8, and 9 [3]",only slightly up-regulated
same,reduction in tumor volume as compared with the control group,[4],18.1%
same,survival rate,[5],92.6%

# From patent US10980850B2, “Use of IAP inhibitor and oncolytic virus in preparation of anti-tumor drug” (Guangzhou Virotech Pharmaceutical Co., Ltd., priority 2016, dated 2021)
